From patent US20040265846A1, “Adrenergic receptors” (DUKE UNIVERSITY, priority 2002, published 2004)
Substitutions are numbered along the chain they refer to.

Tests used:
[1] = target: T1, human α1aAR SNP V311I (Homo sapiens, UniProt P35348, V311I); assay: Competition binding vs [125I]HEAT, SNP V311I; conditions: high expressing clone
T1 construct: expressed in transfected cells
T1 sequence (P35348 1-466 V311I): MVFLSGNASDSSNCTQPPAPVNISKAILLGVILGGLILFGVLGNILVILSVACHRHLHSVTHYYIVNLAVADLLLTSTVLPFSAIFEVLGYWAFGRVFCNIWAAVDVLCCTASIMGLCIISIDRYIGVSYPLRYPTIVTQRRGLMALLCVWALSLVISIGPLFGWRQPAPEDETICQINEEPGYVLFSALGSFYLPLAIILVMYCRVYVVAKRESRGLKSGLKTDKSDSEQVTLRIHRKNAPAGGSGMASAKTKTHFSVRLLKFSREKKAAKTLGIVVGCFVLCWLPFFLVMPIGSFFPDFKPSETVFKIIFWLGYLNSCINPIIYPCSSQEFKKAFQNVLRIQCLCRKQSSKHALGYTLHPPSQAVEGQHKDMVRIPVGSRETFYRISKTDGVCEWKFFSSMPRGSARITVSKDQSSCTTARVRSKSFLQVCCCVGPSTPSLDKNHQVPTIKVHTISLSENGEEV

[2] = target: T2, human α1aAR SNP G247R (Homo sapiens, UniProt P35348, G247R); assay: NE-stimulated inositol phosphate (IP) production, SNP G247R; assay type: cell-based; conditions: low-expression stable clones
T2 construct: expressed in transfected cells
T2 sequence (P35348 1-466 G247R): T1 sequence (P35348 1-466 V311I) with G247R, I311V

[3] = target: T1, human α1aAR SNP V311I; assay: NE-stimulated inositol phosphate (IP) production, SNP V311I; assay type: cell-based
[4] = target: T3, human α1aAR SNP I200S (Homo sapiens, UniProt P35348, I200S); assay: Competition binding vs [125I]HEAT, SNP I200S; conditions: high expressing clone
T3 construct: expressed in transfected cells; host or cells: rat-1 fibroblasts (membranes)
T3 sequence (P35348 1-466 I200S): T1 sequence (P35348 1-466 V311I) with I200S, I311V

CNC[C@H](O)c1cccc(O)c1 [phenylephrine]
Ki increase vs WT (decrease in receptor affinity) [1]: ~3 fold

NC[C@H](O)c1ccc(O)c(O)c1 [NE, (−)-norepinephrine]
maximum IP production (maximum activity) vs WT [2]: significantly higher maximum activity
Ki increase vs WT (decrease in receptor affinity) [1]: ~3 fold
decrease in potency of NE-stimulated IP formation compared with WT ([3]; high-expression stable clone): 2.4 fold
EC50 for NE vs WT ([3]; low-expression stable clone): significantly increased EC50
EC50 for NE vs WT ([3]; transiently transfected rat-1 fibroblasts): significantly increased EC50

Cc1ccc(N(CC2=NCCN2)c2cccc(O)c2)cc1 [phentolamine]
Ki increase vs WT (decreased binding affinity) [4]: ~3 fold

COc1ccccc1N1CCN(CCCNc2c(C)c(=O)n(C)c(=O)n2C)CC1 [5-methylurapidil]
higher affinity vs WT [1]: 3 fold
